In patent publication US5049547A, “Composition for stimulating integumental melanocytes” (University Patents, Inc., priority 1989, dated 1991):
Values joined by “and” are separate entries in the source; they are usually repeats but may differ in a detail not shown here. Equal values may be shown once. Read-outs that look alike come from different tables or passages of the source. Non-standard residues stand in square brackets, D forms with d. Residues, ends and D or L forms follow the SMILES beside them. dPhg = N[C@@H](C(=O)O)c1ccccc1; Nle = CCCC[C@H](N)C(=O)O

Key:
frog (Rana pipiens) skin = type: cell-based
Protocol: (§1) Biological effect on in vivo and in vitro melanosome dispersion was examined using the frog (Rana pipiens) and the lizard (Anolis caroliniensis). [Hadley et al., ,Science 213:1025-1027(1981)]; similar examinations were conducted with respect to the duration of its ability to stimulate melanosome dispersion in vitro using the skin bioassay as described in Shimume, Endrochrinology, 54:553-560(1954). The in vitro results are depicted in Table I.

[1] = test system: lizard (Anolis caroliniensis) skin; assay: in vitro lizard skin bioassay, melanosome dispersion; type: cell-based; settings: alpha-MSH = 1.0
Protocol: as §1

[2] = test system: TA-98 strain of S. typhimurium; assay: Ames microbacterial assay; settings: spontaneous revertants subtracted
Protocol: The Ames microbacterial assay was used for these tests which were performed both with and without a microsomal enzyme/NADPH generating system. Briefly, this test measures the number of reverse mutations which occur in special histidine-dependent strains of Salmonella typhimurium. Positives (mutations) are scored as the number of revertant cells which are able to form colonies in a histidine-deficient growth medium after exposure to a mutagenic substance.
All substances were dissolved in sterile 0.9% sodium chloride (without preservatives) to concentrations of 10^-2, 10^-3 and 10^-4 Molar. The TA-98 strain of S. typhimurium was used and experiments were performed with and without exposure to S-9 rat liver microsomal enzymes and an NADPH generating system. This enzyme cocktail can metabolically activate some compounds to mutagenic species. In addition to the melanotropins, doxorybicin (Adriamycin™) was also simultaneously tested. […] It was thus included to act as a positive control. […] For the actual evalution of revertants, the identity of the specific test compounds was blinded.

Row | Molecule | Relative Potency Frog (frog (Rana pipiens) skin; in vitro, alpha-MSH = 1.0) | Relative Potency Lizard [1] | further results
1 | CC(=O)N[C@@H](CCC(=O)O)C(=O)N[C@@H](Cc1c[nH]cn1)C(=O)N[C@H](Cc1ccccc1)C(=O)N[C@@H](CCCNC(=N)N)C(=O)N[C@@H](Cc1c[nH]c2ccccc12)C(=O)NCC(=O)N[C@@H](CCCCN)C(N)=O [Ac-[D-Phe^7]-alpha-MSH5-11 -NH2] (Ac-EH[dF]RWGK-NH2) | 0.01 | – | –
2 | CCCC[C@H](NC(C)=O)C(=O)N[C@@H](CCC(=O)O)C(=O)N[C@@H](Cc1c[nH]cn1)C(=O)N[C@@H](C)C(=O)N[C@@H](CCCNC(=N)N)C(=O)N[C@@H](Cc1c[nH]c2ccccc12)C(=O)NCC(=O)N[C@@H](CCCCN)C(N)=O [Ac-[Nle^4 -Ala^7]-alpha-MSH4-11 -NH2] (Ac-[Nle]EHARWGK-NH2) | – | – | Relative Potency Frog (frog (Rana pipiens) skin): 0.02
3 | CCCC[C@H](NC(C)=O)C(=O)N[C@@H](CCC(=O)O)C(=O)N[C@@H](Cc1c[nH]cn1)C(=O)N[C@H](C)C(=O)N[C@@H](CCCNC(=N)N)C(=O)N[C@@H](Cc1c[nH]c2ccccc12)C(=O)NCC(=O)N[C@@H](CCCCN)C(N)=O [Ac-[Nle^4 -D-Ala^7]-alpha-MSH4-11 -NH2] (Ac-[Nle]EH[dA]RWGK-NH2) | 0.000080 | 0.020 | –
4 | CCCC[C@H](NC(C)=O)C(=O)N[C@@H](CCC(=O)O)C(=O)N[C@@H](Cc1c[nH]cn1)C(=O)N[C@@H](Cc1ccccc1)C(=O)N[C@H](CCCNC(=N)N)C(=O)N[C@@H](Cc1c[nH]c2ccccc12)C(=O)NCC(=O)N[C@@H](CCCCN)C(N)=O [Ac-[Nle^4 -D-Arg^8]-alpha-MSH4-11 -NH2] (Ac-[Nle]EHF[dR]WGK-NH2) | 0.000016 | 0.0022 | –
5 | CCCC[C@H](NC(C)=O)C(=O)N[C@@H](CCC(=O)O)C(=O)N[C@@H](Cc1c[nH]cn1)C(=O)N[C@H](Cc1ccccc1)C(=O)N[C@@H](CCCNC(=N)N)C(=O)N[C@H](Cc1c[nH]c2ccccc12)C(N)=O [Ac-[Nle^4 -D-Phe^7 -D-Trp^9]-alpha-MSH4-9 -NH2] (Ac-[Nle]EH[dF]R[dW]-NH2) | 0.03 | 3.8 | –
6 | CCCC[C@H](NC(C)=O)C(=O)N[C@@H](CCC(=O)O)C(=O)N[C@@H](Cc1c[nH]cn1)C(=O)N[C@H](Cc1ccccc1)C(=O)N[C@@H](CCCNC(=N)N)C(=O)N[C@@H](Cc1ccccc1)C(=O)NCC(=O)N[C@@H](CCCCN)C(N)=O [Ac-[Nle^4 -D-Phe^7 -Phe^9]-alpha-MSH4-11 -NH2] (Ac-[Nle]EH[dF]RFGK-NH2) | 0.017 | – | –
7 | CCCC[C@H](NC(C)=O)C(=O)N[C@@H](CCC(=O)O)C(=O)N[C@@H](Cc1c[nH]cn1)C(=O)N[C@H](Cc1ccccc1)C(=O)N[C@@H](CCCNC(=N)N)C(=O)N[C@@H](Cc1c[nH]c2ccccc12)C(=O)NCC(N)=O [Ac-[Nle^4 -D-Phe^7]-alpha-MSH4-10 -NH2] | 0.02 | – | REVERTANTS PER PLATE WITH S-9 ([2]; 10^-2 M): 0; […] PLATE WITHOUT S-9 ([2]; 10^-2 M): 0; REVERTANTS PER PLATE WITH S-9 ([2]; 10^-3 M): 0; […] PLATE WITHOUT S-9 ([2]; 10^-3 M): 0; REVERTANTS PER PLATE WITH S-9 ([2]; 10^-4 M): 0; […] PLATE WITHOUT S-9 ([2]; 10^-4 M): 0
8 | CCCC[C@H](NC(C)=O)C(=O)N[C@@H](CCC(=O)O)C(=O)N[C@@H](Cc1c[nH]cn1)C(=O)N[C@@H](C(=O)N[C@@H](CCCNC(=N)N)C(=O)N[C@@H](Cc1c[nH]c2ccccc12)C(=O)NCC(=O)N[C@@H](CCCCN)C(N)=O)c1ccccc1 [Ac-[Nle^4 -D-Plg^7]-alpha-MSH4-11 -NH2] (Ac-[Nle]EH[dPhg]RWGK-NH2) | 0.0003 | 0.0005 | –
9 | CCCC[C@H](NC(C)=O)C(=O)N[C@@H](CCC(=O)O)C(=O)N[C@@H](Cc1c[nH]cn1)C(=O)N[C@H](Cc1ccc(O)cc1)C(=O)N[C@@H](CCCNC(=N)N)C(=O)N[C@@H](Cc1c[nH]c2ccccc12)C(=O)NCC(=O)N[C@@H](CCCCN)C(N)=O [Ac-[Nle^4 -D-Tyr^7]-alpha-MSH4-11 -NH2] (Ac-[Nle]EH[dY]RWGK-NH2) | 0.0020 and 0.0033 | 1.0 | –
10 | CCCC[C@H](NC(C)=O)C(=O)N[C@@H](CCC(=O)O)C(=O)N[C@@H](Cc1ccccc1)C(=O)N[C@H](Cc1ccccc1)C(=O)N[C@@H](CCCNC(=N)N)C(=O)N[C@@H](Cc1c[nH]c2ccccc12)C(=O)NCC(=O)N[C@@H](CCCCN)C(N)=O [Ac-[Nle^4 -Phe^6 -D-Phe^7]-alpha-MSH4-11 -NH2] (Ac-[Nle]EF[dF]RWGK-NH2) | 0.012 | – | –
11 | CCCC[C@H](NC(C)=O)C(=O)N[C@@H](CCC(=O)O)C(=O)N[C@@H](Cc1c[nH]cn1)C(=O)N[C@@H](Cc1ccc(O)cc1)C(=O)N[C@@H](CCCNC(=N)N)C(=O)N[C@@H](Cc1c[nH]c2ccccc12)C(=O)NCC(=O)N[C@@H](CCCCN)C(N)=O [Ac-[Nle^4 -Tyr^7]-alpha-MSH4-11 -NH2] (Ac-[Nle]EHYRWGK-NH2) | – | 0.0090 | –
12 | CCCC[C@H](NC(C)=O)C(=O)N[C@@H](CCC(=O)O)C(=O)N[C@@H](Cc1c[nH]cn1)C(=O)N[C@@H](Cc1ccccc1)C(=O)N[C@@H](CCCNC(=N)N)C(=O)N[C@@H](Cc1c[nH]c2ccccc12)C(=O)NCC(=O)N[C@@H](CCCCN)C(N)=O [Ac-[Nle^4 ]-alpha-MSH4-11 -NH2] (Ac-[Nle]EHFRWGK-NH2) | 0.0019 | – | –
13 | CCCC[C@H](NC(C)=O)C(=O)N[C@@H](CCC(=O)O)C(=O)N[C@@H](Cc1c[nH]cn1)C(=O)N[C@@H](Cc1ccccc1)C(=O)N[C@@H](CCCNC(=N)N)C(=O)N[C@@H](Cc1c[nH]c2ccccc12)C(N)=O [Ac-[Nle^4]-alpha-MSH4-9 -NH2] (Ac-[Nle]EHFRW-NH2) | 0.0007 | 0.18 | –
14 | CC(=O)N[C@@H](Cc1ccc(O)cc1)C(=O)N[C@@H](CCC(=O)O)C(=O)N[C@@H](Cc1c[nH]cn1)C(=O)N[C@H](Cc1ccccc1)C(=O)N[C@@H](CCCNC(=N)N)C(=O)N[C@@H](Cc1c[nH]c2ccccc12)C(=O)NCC(=O)N[C@@H](CCCCN)C(N)=O [Ac-[Tyr^4 -D-Phe^7]-alpha-MSH4-11 -NH2] (Ac-YEH[dF]RWGK-NH2) | 0.01 | – | –
15 | COc1cccc2c1C(=O)c1c(O)c3c(c(O)c1C2=O)C[C@@](O)(C(=O)CO)C[C@@H]3O[C@H]1C[C@H](N)[C@H](O)[C@H](C)O1 [Adriamycin, Doxorubicin, reference compound] | – | – | […] PLATE WITH S-9 ([2]; 10 µg/ml): 2500; […] PLATE WITHOUT S-9 ([2]; 10 µg/ml): 230; […] PLATE WITH S-9 ([2]; 1.0 g/ml): 100; […] PLATE WITHOUT S-9 ([2]; 1.0 g/ml): 0
16 | Ac-[Nle^4 -D-Phe^7 -D-Arg^8 ]-alpha-MSH4- | – | 0.0022 | –
17 | Ac-[Phe-Gly^7 ]-alpha-MSH4-11 -NH2 | 0.10 | – | –
